Test results from ChEMBL document CHEMBL5344477, “Discovery of benzoheterocyclic-substituted amide derivatives as apoptosis signal-regulating kinase 1 (ASK1) inhibitors” (RSC Med Chem, 2024).

How the values were obtained:
[1] = Half life in Sprague-Dawley rat at 5 mg/kg, po measured upto 24 hrs by LC-MS/MS analysis; type: ADME, organism-based; details: in vivo
[2] = Volume of distribution at steady state in Sprague-Dawley rat at 1 mg/kg, iv measured upto 24 hrs by LC-MS/MS analysis; type: ADME, organism-based; details: in vivo, read-out: Vdss
[3] = Metabolic stability in human liver microsomes assessed as half life at 1 uM measured upto 90 mins by LC-MS/MS analysis; type: ADME, Microsome
[4] = Half life in Sprague-Dawley rat at 1 mg/kg, iv measured upto 24 hrs by LC-MS/MS analysis; type: ADME, organism-based; details: in vivo
[5] = Metabolic stability in human liver microsomes assessed as clearance at 1 uM measured upto 90 mins by LC-MS/MS analysis; type: ADME, Microsome; details: read-out: CLH
[6] = Cmax in Sprague-Dawley rat at 5 mg/kg, po measured upto 24 hrs by LC-MS/MS analysis; type: ADME, organism-based; parameters: dose 5 mg/kg, time < 24 hrs, route po; details: in vivo
[7] = Cmax in Sprague-Dawley rat at 1 mg/kg, iv measured upto 24 hrs by LC-MS/MS analysis; type: ADME, organism-based; parameters: dose 1 mg/kg, time < 24 hrs, route iv; details: in vivo
[8] = Oral bioavailability in Sprague-Dawley rat at 5 mg/kg measured upto 24 hrs by LC-MS/MS analysis; type: ADME, organism-based; details: in vivo
[9] = Apparent […] clearance in Sprague-Dawley rat at 1 mg/kg, iv measured upto 24 hrs by LC-MS/MS analysis; type: ADME, organism-based; details: in vivo
[10] = Metabolic stability in rat liver microsomes assessed as clearance at 1 uM measured upto 90 mins by LC-MS/MS analysis; type: ADME, Microsome; details: read-out: CLH
[11] = Metabolic stability in rat liver microsomes assessed as half life at 1 uM measured upto 90 mins by LC-MS/MS analysis; type: ADME, Microsome
[12] = AUClast in Sprague-Dawley rat at 5 mg/kg, po measured upto 24 hrs by LC-MS/MS analysis; type: ADME, organism-based; parameters: dose 5 mg/kg, time < 24 hrs, route po; details: in vivo
[13] = AUClast in Sprague-Dawley rat at 1 mg/kg, iv measured upto 24 hrs by LC-MS/MS analysis; type: ADME, organism-based; parameters: dose 1 mg/kg, time < 24 hrs, route iv; details: in vivo

Row | Structure (SMILES) | half-life [1] | Vd [2] | half-life at 1 µM [3] | half-life [4] | CLint scaled at 1 µM [5] | Cmax [6] | Cmax [7] | bioavailability [8] | CL/F [9] | CLint scaled at 1 µM [10] | half-life at 1 µM [11] | AUC(0-t) at 24 h [12] | AUC(0-t) at 24 h [13]
1 | CC(C)n1cnnc1-c1cccc(NC(=O)c2cc3c(cc2F)OCC(=O)N3)n1 | 1.86 h | 0.85 L/kg | 9.74 h | 1.11 h | 3 mL/min/kg | 1260 ng/mL | 1040 ng/mL | 56.4% | 10.2 mL/min/kg | 13.7 mL/min/kg | 3.02 h | 4290 ng·h/mL | 1630 ng·h/mL
2 | CC(CO)n1cnnc1-c1cccc(NC(=O)c2cc3c(cc2F)OCC(=O)N3)n1 (stereo not given) | 1.55 h | 1.25 L/kg | 2.96 h | 0.22 h | 9.8 mL/min/kg | 27 ng/mL | 514 ng/mL | 2.1% | 72.5 mL/min/kg | 19.5 mL/min/kg | 2.12 h | 21 ng·h/mL | 229 ng·h/mL
3 | O=C(Nc1cccc(-c2nncn2C2CC2)n1)c1cc2c(cc1F)OCc1cncn1-2 | – | – | 1.34 h | – | 21.7 mL/min/kg | – | – | – | – | 181 mL/min/kg | 0.228 h | – | –
4 | CC(C)n1cnnc1-c1cccc(NC(=O)c2cc3c(cc2F)C(C)(C)CC(=O)N3)n1 | 2.03 h | 1.07 L/kg | – | 0.99 h | – | 1420 ng/mL | 945 ng/mL | 75.9% | 13.8 mL/min/kg | – | – | 4560 ng·h/mL | 1200 ng·h/mL
5 | O=C1COc2cc(F)c(C(=O)Nc3cccc(-c4nncn4-c4ccccc4)n3)cc2N1 | 2.95 h | 0.68 L/kg | 2.55 h | 3.15 h | 11.4 mL/min/kg | 3000 ng/mL | 1580 ng/mL | 47.9% | 3.33 mL/min/kg | 4.7 mL/min/kg | 8.74 h | 12100 ng·h/mL | 5070 ng·h/mL
6 | CC(C)N1C(=O)COc2cc(F)c(C(=O)Nc3cccc(-c4nncn4C(C)C)n3)cc21 | – | – | 0.917 h | – | 31.6 mL/min/kg | – | – | – | – | 140 mL/min/kg | 0.297 h | – | –
7 | O=C(Nc1cccc(-c2nncn2C2CCCC2)n1)c1cc2c(cc1F)OCc1cncn1-2 | – | – | 0.35 h | – | 82.7 mL/min/kg | – | – | – | – | 230 mL/min/kg | 0.18 h | – | –
8 | CC(C)n1cnnc1-c1cccc(NC(=O)c2cc3c(cc2F)CCC(=O)N3)n1 | 1.46 h | 0.56 L/kg | 4.98 h | 0.71 h | 5.8 mL/min/kg | 334 ng/mL | 2080 ng/mL | 8.8% | 13.2 mL/min/kg | 13.3 mL/min/kg | 3.12 h | 534 ng·h/mL | 1260 ng·h/mL
9 | CC(C)n1cnnc1-c1cccc(NC(=O)c2cc3c(cc2F)OCc2cncn2-3)c1 | 1.13 h | 2.61 L/kg | 0.458 h | 0.63 h | 63.3 mL/min/kg | 445 ng/mL | 235 ng/mL | 57.4% | 50.3 mL/min/kg | 378 mL/min/kg | 0.11 h | 939 ng·h/mL | 329 ng·h/mL
10 | CC(C)n1cnnc1-c1cccc(NC(=O)c2cc3c(cc2F)CCCC(=O)N3C)n1 | 2.37 h | 1.56 L/kg | – | 0.73 h | – | 582 ng/mL | 597 ng/mL | 116% | 43.7 mL/min/kg | – | – | 2210 ng·h/mL | 381 ng·h/mL
11 | O=C1COc2cc(F)c(C(=O)Nc3cccc(-c4nncn4C4CCCC4)n3)cc2N1 | 2.36 h | 0.97 L/kg | 0.307 h | 0.86 h | 94.3 mL/min/kg | 1490 ng/mL | 1080 ng/mL | 77.7% | 18.2 mL/min/kg | 70.8 mL/min/kg | 0.585 h | 3390 ng·h/mL | 919 ng·h/mL
12 | O=C(Nc1cccc(-c2nncn2-c2ccccc2)n1)c1cc2c(cc1F)OCc1cncn1-2 | – | – | 1.1 h | – | 26.4 mL/min/kg | – | – | – | – | 160 mL/min/kg | 0.258 h | – | –
13 | O=C(Nc1cccc(-c2nncn2CC2CC2)c1)c1cc2c(cc1F)OCc1cncn1-2 | 0.97 h | 1.08 L/kg | 1.12 h | 0.55 h | 25.8 mL/min/kg | 635 ng/mL | 812 ng/mL | 40.2% | 38.5 mL/min/kg | 248 mL/min/kg | 0.167 h | 865 ng·h/mL | 431 ng·h/mL
14 | CC(C)n1cnnc1-c1cccc(NC(=O)c2cc3c(cc2F)OCc2cncn2-3)n1 | 1.1 h | 1.22 L/kg | 1.78 h | 0.67 h | 16.3 mL/min/kg | 794 ng/mL | 793 ng/mL | 86.9% | 31.3 mL/min/kg | 222 mL/min/kg | 0.187 h | 2280 ng·h/mL | 529 ng·h/mL
15 | O=C(Nc1cccc(-c2nncn2CC2CC2)n1)c1cc2c(cc1F)OCc1cncn1-2 | 1.04 h | 1.13 L/kg | 1.2 h | 0.75 h | 24.1 mL/min/kg | 3520 ng/mL | 804 ng/mL | – | 23.7 mL/min/kg | 151 mL/min/kg | 0.275 h | 7820 ng·h/mL | 706 ng·h/mL
16 | CC(C)n1cnnc1-c1cccc(NC(=O)c2cc3c(cc2F)OCC(=O)N3C)n1 | 2.11 h | 1.49 L/kg | 5.67 h | 1.62 h | 5.1 mL/min/kg | 1830 ng/mL | 779 ng/mL | 97.9% | 7.5 mL/min/kg | 16.8 mL/min/kg | 2.46 h | 10900 ng·h/mL | 2220 ng·h/mL
17 | CC(CO)n1cnnc1-c1cccc(NC(=O)c2cc3c(cc2F)CCCC(=O)N3)n1 (stereo not given) | – | 3.01 L/kg | 16.3 h | 0.28 h | 1.8 mL/min/kg | – | 262 ng/mL | – | 154 mL/min/kg | 9.5 mL/min/kg | 4.37 h | – | 108 ng·h/mL
18 | CC(C)n1cnnc1-c1cccc(NC(=O)c2cc3c(cc2F)CCC(=O)N3)c1 | 1.79 h | 3.41 L/kg | 17.3 h | 0.68 h | 1.7 mL/min/kg | 58 ng/mL | 274 ng/mL | 15.1% | 74.5 mL/min/kg | 7.5 mL/min/kg | 5.49 h | 157 ng·h/mL | 222 ng·h/mL
19 | Cc1cc(F)c(C(=O)Nc2cccc(-c3nncn3C(C)C)n2)cc1-n1cnc(C2CC2)c1 [SELONSERTIB] | – | 0.27 L/kg | – | – | – | 6030 ng/mL | 3030 ng/mL | 129% | – | – | – | 38300 ng·h/mL | –
